# Data as given in PMC7782793, “Hydroxamic acid-modified peptide microarrays for profiling isozyme-selective interactions and inhibition of histone deacetylases” (Nature Communications, 2021).
# Where “and” joins values, the source holds several entries; their conditions need not be identical. Equal entries are not always repeated. Marks after values point to notes of the source that are not given here. Non-standard residues stand in square brackets, D forms with d. Residues, ends and D or L forms follow the SMILES beside them. *: point of attachment. Asu = N[C@@H](CCCCCC(=O)O)C(=O)O; NHOH = ON*
# Assays:
# HDAC2 [1] = target: T1, HDAC2 (Homo sapiens, UniProt Q92769); assay: Recombinant HDAC µSPOT microarray binding assay;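 further: Cellulose-bound peptide spots on slides incubated with six HDAC enzyme concentrations, binding intensity read, four-parameter variable-slope fit, EC50 is enzyme concentration giving half-maximal binding, in HEPES buffer pH 7.4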
# T1 construct: HDAC2 (full length, C-terminal His tag, BPS Bioscience, cat. #: 50002); purchased BPS Bioscience 50002
# HDAC1 [2] = target: T2, HDAC1 (Homo sapiens, UniProt Q13547); assay: HDAC inhibition assay (fluorogenic, Ac-Leu-Gly-Lys(Ac)-AMC); format: biochemical; settings: for HDAC1 dose-response data (relative enzyme activity), Fig. 6 + S. Fig. 10: duplicate columns
# T2 construct: HDAC1 (full length, C-terminal His tag, C-terminal FLAG tag, BPS Bioscience, cat. #: 50051); FLAG (C); purchased BPS Bioscience 50051
# HDACs 1‒3 and 8 = assay: HDAC inhibition assays, statements across several class I isozymes; format: biochemical, human; settings: across the HDACs named in the sentence
# HDAC3/NCoR2 [3] = target: T3, HDAC3/NCoR2 (Homo sapiens, UniProt O15379); assay: HDAC inhibition assay (fluorogenic, Ac-Leu-Gly-Lys(Ac)-AMC); format: biochemical; settings: for HDAC3 dose-response data (relative enzyme activity), Fig. 6 + S. Fig. 10: duplicate columns
# T3 construct: HDAC3/NCoR2 (full length, C-terminal His tag, NCoR2 N-terminal GST tag); purchased BPS Bioscience 50003
# HDAC6 = target: T4, HDAC6 (Homo sapiens, UniProt Q9UBN7); assay: as above; format: biochemical; settings: HDAC6, replicates
# T4 construct: HDAC6 (full length, BPS Bioscience, cat. #: 50056); purchased BPS Bioscience 50056
# T4 sequence (Q9UBN7 1-1215): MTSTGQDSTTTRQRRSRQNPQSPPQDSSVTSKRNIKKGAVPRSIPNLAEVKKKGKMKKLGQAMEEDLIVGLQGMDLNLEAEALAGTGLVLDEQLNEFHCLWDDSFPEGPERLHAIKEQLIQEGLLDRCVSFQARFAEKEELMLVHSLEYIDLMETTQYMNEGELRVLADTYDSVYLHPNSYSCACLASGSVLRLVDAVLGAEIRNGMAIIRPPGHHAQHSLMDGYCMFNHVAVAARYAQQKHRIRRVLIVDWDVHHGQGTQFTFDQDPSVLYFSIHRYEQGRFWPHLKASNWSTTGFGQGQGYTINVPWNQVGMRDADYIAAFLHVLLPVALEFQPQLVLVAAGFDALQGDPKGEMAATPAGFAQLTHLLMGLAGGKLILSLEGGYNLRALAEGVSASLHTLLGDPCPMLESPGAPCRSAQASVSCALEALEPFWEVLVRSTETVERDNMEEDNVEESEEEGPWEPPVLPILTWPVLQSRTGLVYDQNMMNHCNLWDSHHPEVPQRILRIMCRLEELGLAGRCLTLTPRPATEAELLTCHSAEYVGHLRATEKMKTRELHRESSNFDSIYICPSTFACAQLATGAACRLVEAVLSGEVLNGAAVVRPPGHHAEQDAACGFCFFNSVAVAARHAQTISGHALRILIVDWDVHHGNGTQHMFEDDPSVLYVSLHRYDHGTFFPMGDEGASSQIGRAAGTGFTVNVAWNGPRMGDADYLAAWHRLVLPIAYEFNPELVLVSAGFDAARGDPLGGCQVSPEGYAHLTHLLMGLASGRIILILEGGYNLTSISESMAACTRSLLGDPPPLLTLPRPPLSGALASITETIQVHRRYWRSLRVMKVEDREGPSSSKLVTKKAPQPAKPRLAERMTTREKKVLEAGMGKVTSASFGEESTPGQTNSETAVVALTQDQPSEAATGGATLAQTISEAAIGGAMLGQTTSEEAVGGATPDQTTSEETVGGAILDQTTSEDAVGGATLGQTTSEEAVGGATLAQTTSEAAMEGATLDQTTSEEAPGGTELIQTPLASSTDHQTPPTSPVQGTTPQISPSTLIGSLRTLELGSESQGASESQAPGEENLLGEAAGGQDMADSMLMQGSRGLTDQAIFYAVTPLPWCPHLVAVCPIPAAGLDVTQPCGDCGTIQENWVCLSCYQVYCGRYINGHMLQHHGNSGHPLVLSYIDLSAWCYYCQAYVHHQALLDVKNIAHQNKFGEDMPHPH
# HDAC4 = target: T5, HDAC4 (Homo sapiens, UniProt P56524); assay: HDAC inhibition assay (fluorogenic, Ac-Leu-Gly-Lys(Tfa)-AMC); format: biochemical; settings: 2 internal replicates
# T5 construct: purchased BPS Bioscience 50004
# HDAC3/NCoR2 [4] = target: T3, HDAC3/NCoR2; assay: Recombinant HDAC µSPOT microarray binding assay
# HDAC2 [5] = target: T1, HDAC2; assay: HDAC inhibition assay (fluorogenic, Ac-Leu-Gly-Lys(Ac)-AMC); format: biochemical; settings: for HDAC2 dose-response data (relative enzyme activity), Fig. 6 + S. Fig. 10: duplicate columns
# HDAC8 = target: T6, HDAC8 (Homo sapiens, UniProt Q9BY41); assay: Recombinant HDAC µSPOT microarray binding assay;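 further: peptide µSPOT slides incubated with varying HDAC enzyme concentrations, imaged signal intensity fitted by four-parameter variable-slope regression, EC50 is enzyme concentration giving half-maximal binding, pH 7.4 HEPES buffer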
# T6 construct: HDAC8 (full length, C-terminal His tag, BPS Bioscience, cat. #: 50008); purchased BPS Bioscience 50008
# T6 sequence (Q9BY41 1-377): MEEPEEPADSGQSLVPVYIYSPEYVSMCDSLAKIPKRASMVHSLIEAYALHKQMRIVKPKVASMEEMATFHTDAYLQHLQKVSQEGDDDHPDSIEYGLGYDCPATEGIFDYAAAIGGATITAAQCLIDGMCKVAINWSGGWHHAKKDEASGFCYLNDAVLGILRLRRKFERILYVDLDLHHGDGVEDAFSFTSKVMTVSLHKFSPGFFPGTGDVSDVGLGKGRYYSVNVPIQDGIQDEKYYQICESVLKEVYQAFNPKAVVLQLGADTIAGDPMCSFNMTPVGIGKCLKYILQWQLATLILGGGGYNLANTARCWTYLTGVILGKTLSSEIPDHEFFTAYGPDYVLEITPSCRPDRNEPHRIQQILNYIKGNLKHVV
# HDAC1 [6] = target: T2, HDAC1; assay: Recombinant HDAC µSPOT microarray binding assay
# [7] = log[inhibitor(M)] -10,5850266520292*, whole line marked with asterisks
# T1 sequence (Q92769 whole entry): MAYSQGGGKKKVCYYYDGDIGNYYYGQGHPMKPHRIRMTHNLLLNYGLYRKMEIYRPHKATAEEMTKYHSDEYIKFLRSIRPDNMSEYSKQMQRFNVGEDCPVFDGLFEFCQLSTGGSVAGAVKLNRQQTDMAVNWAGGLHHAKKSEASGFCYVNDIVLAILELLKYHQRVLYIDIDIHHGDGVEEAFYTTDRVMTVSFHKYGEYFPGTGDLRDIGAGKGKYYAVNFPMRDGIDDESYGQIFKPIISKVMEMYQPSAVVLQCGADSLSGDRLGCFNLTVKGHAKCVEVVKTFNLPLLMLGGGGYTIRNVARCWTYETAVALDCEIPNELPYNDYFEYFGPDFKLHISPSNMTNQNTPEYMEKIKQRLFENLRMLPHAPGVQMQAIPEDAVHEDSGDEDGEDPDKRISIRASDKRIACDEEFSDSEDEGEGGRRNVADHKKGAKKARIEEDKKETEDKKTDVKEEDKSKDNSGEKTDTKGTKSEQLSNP
# T5 sequence (P56524 627-1084): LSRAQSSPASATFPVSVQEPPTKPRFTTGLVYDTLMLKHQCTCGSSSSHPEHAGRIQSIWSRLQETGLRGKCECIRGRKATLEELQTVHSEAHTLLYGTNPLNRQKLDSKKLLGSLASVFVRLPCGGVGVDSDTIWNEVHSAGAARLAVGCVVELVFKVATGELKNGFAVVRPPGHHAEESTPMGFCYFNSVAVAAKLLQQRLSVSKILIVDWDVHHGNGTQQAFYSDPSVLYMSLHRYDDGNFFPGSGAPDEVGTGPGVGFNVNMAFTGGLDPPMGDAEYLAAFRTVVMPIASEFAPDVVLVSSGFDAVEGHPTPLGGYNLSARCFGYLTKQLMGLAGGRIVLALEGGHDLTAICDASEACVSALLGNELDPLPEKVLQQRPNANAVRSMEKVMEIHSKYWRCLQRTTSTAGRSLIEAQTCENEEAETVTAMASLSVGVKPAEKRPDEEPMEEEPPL
# T2 sequence (Q13547 whole entry): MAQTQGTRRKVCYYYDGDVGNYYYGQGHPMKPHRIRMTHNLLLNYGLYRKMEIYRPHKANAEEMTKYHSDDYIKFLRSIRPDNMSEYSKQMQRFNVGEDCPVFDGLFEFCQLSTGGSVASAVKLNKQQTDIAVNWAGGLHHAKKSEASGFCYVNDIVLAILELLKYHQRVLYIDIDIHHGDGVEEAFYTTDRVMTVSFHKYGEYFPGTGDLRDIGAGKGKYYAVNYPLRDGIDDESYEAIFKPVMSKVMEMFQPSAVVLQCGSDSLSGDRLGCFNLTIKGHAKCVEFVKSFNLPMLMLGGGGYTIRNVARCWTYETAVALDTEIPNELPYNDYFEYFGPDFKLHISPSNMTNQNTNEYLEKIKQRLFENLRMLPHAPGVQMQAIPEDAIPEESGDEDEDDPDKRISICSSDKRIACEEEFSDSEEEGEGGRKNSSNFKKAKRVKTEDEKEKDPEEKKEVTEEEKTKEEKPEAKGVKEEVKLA
# T3 sequence (O15379 whole entry): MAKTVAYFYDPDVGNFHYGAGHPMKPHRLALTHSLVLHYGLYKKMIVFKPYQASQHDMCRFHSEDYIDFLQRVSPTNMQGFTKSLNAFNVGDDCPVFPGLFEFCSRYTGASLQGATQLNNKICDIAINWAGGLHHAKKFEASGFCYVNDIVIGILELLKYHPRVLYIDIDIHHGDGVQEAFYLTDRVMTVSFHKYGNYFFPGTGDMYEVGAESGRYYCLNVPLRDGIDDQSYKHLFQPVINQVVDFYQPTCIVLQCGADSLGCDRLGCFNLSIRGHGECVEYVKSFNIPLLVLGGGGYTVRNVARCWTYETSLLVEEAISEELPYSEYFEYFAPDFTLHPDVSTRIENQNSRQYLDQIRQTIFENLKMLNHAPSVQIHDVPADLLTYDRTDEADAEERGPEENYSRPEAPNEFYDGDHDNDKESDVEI
# T3 sequence (Q9Y618 389-480 partner limits assumed): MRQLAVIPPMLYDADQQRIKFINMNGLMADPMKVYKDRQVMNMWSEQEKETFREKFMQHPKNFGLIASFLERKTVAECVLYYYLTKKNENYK
smiles,measurement,setting,value
CC(=O)N1CCC[C@H]1C(=O)N[C@@H](CCCNC(=N)N)C(=O)N[C@@H](CCCCN)C(=O)N[C@@H](CCC(N)=O)C(=O)N[C@@H](CC(C)C)C(=O)N[C@@H](C)C(=O)N[C@H](C(=O)N[C@@H](CCCCN)C(=O)N[C@@H](C)C(=O)N[C@@H](C)C(=O)N[C@@H](CCCNC(=N)N)C(=O)N[C@@H](CCCCCC(=O)NO)C(=O)N[C@@H](CO)C(=O)N[C@@H](C)C(=O)N1CCC[C@H]1C(=O)N[C@@H](C)C(=O)N[C@@H](Cc1c[nH]c2ccccc12)C(N)=O)[C@@H](C)O [14a] (Ac-PRKQLATKAAR[Asu](NHOH)SAPAW-NH2),EC50,HDAC2 [1],2.82 nM
same,Ki,HDAC1 [2],24.7 ± 0.5 nM
same,"HDAC1 dose-response data (relative enzyme activity), Fig. 6 + S. Fig. 10",HDAC1 [2]; log[inhibitor(M)] -5,15.0147 and 10.9187
same,"HDAC1 dose-response data (relative enzyme activity), Fig. 6 + S. Fig. 10",HDAC1 [2]; log[inhibitor(M)] -5.69897,14.0922 and 20.0402
same,"HDAC1 dose-response data (relative enzyme activity), Fig. 6 + S. Fig. 10",HDAC1 [2]; log[inhibitor(M)] -6.39794,32.9512 and 39.8845
same,"HDAC1 dose-response data (relative enzyme activity), Fig. 6 + S. Fig. 10",HDAC1 [2]; log[inhibitor(M)] -7.79588,81.8715 and 100.09
same,"HDAC1 dose-response data (relative enzyme activity), Fig. 6 + S. Fig. 10",HDAC1 [2]; log[inhibitor(M)] -8.49485,94.0176 and 111.23
same,"HDAC1 dose-response data (relative enzyme activity), Fig. 6 + S. Fig. 10",HDAC1 [2]; log[inhibitor(M)] -9.19382,106.697 and 107.189
same,"HDAC1 dose-response data (relative enzyme activity), Fig. 6 + S. Fig. 10",HDAC1 [2]; log[inhibitor(M)] -9.89279,102.41 and 107.234
same,"HDAC1 dose-response data (relative enzyme activity), Fig. 6 + S. Fig. 10",HDAC1 [2]; [7],"103,6577* and 97,95181*"
same,inhibitory potency in words,HDACs 1‒3 and 8,inhibited all four isozymes with similar potency
same,Ki,HDAC3/NCoR2 [3],16.8 ± 0.2 nM
same,"HDAC3 dose-response data (relative enzyme activity), Fig. 6 + S. Fig. 10",HDAC3/NCoR2 [3]; log[inhibitor(M)] -4.30103,0.8181 and 0.573
same,"HDAC3 dose-response data (relative enzyme activity), Fig. 6 + S. Fig. 10",HDAC3/NCoR2 [3]; log[inhibitor(M)] -5,3.641 and 2.7786
same,"HDAC3 dose-response data (relative enzyme activity), Fig. 6 + S. Fig. 10",HDAC3/NCoR2 [3]; log[inhibitor(M)] -5.69897,13.6613 and 10.1867
same,"HDAC3 dose-response data (relative enzyme activity), Fig. 6 + S. Fig. 10",HDAC3/NCoR2 [3]; log[inhibitor(M)] -6.39794,32.1253 and 23.5469
same,"HDAC3 dose-response data (relative enzyme activity), Fig. 6 + S. Fig. 10",HDAC3/NCoR2 [3]; log[inhibitor(M)] -7.09691,54.9619 and 43.4084
same,"HDAC3 dose-response data (relative enzyme activity), Fig. 6 + S. Fig. 10",HDAC3/NCoR2 [3]; log[inhibitor(M)] -7.79588,82.3244 and 70.9683
same,"HDAC3 dose-response data (relative enzyme activity), Fig. 6 + S. Fig. 10",HDAC3/NCoR2 [3]; log[inhibitor(M)] -8.49485,99.6485 and 88.5218
same,"HDAC3 dose-response data (relative enzyme activity), Fig. 6 + S. Fig. 10",HDAC3/NCoR2 [3]; log[inhibitor(M)] -9.19382,108.712 and 95.7391
same,"HDAC3 dose-response data (relative enzyme activity), Fig. 6 + S. Fig. 10",HDAC3/NCoR2 [3]; log[inhibitor(M)] -9.89279,105.572 and 99.3991
same,"HDAC3 dose-response data (relative enzyme activity), Fig. 6 + S. Fig. 10",HDAC3/NCoR2 [3]; [7],"106,3724* and 79,46551*"
same,residual enzymatic activity relative to control wells,HDAC6; log[inhibitor(M)] -4.30103,0.91 and 1.08
same,residual enzymatic activity relative to control wells,HDAC6; log[inhibitor(M)] -5,1.61 and 1.34
same,residual enzymatic activity relative to control wells,HDAC6; log[inhibitor(M)] -5.69897,2.69 and 2.19
same,residual enzymatic activity relative to control wells,HDAC6; log[inhibitor(M)] -6.39794,9.28 and 7.48
same,residual enzymatic activity relative to control wells,HDAC6; log[inhibitor(M)] -7.09691,29.33 and 24.37
same,residual enzymatic activity relative to control wells,HDAC6; log[inhibitor(M)] -7.79588,61.34 and 57.66
same,residual enzymatic activity relative to control wells,HDAC6; log[inhibitor(M)] -8.49485,91.27 and 83.89
same,residual enzymatic activity relative to control wells,HDAC6; log[inhibitor(M)] -9.19382,101.6 and 95.57
same,residual enzymatic activity relative to control wells,HDAC6; log[inhibitor(M)] -9.89279,101.56 and 98.95
same,residual enzymatic activity relative to control wells,HDAC6; log[inhibitor(M)] -10.585,"102,36* and 98,9*"
same,residual enzymatic activity relative to control wells,HDAC4; inhibitor 5 µM,82.79
same,remaining activity at 5 µM,"HDAC4; inhibitor 5 µM, read-out: residual enzymatic activity relative to control wells",91.8%
same,residual enzymatic activity relative to control wells,HDAC4; inhibitor 50 µM,33.99
same,remaining activity at 50 µM,"HDAC4; inhibitor 50 µM, read-out: residual enzymatic activity relative to control wells",41.7%
same,EC50,HDAC3/NCoR2 [4],2.95 nM
same,"HDAC2 dose-response data (relative enzyme activity), Fig. 6 + S. Fig. 10",HDAC2 [5]; log[inhibitor(M)] -5,11.6652 and 17.3045
same,"HDAC2 dose-response data (relative enzyme activity), Fig. 6 + S. Fig. 10",HDAC2 [5]; log[inhibitor(M)] -5.69897,34.222 and 35.4537
same,"HDAC2 dose-response data (relative enzyme activity), Fig. 6 + S. Fig. 10",HDAC2 [5]; log[inhibitor(M)] -7.79588,103.08 and 94.3091
same,"HDAC2 dose-response data (relative enzyme activity), Fig. 6 + S. Fig. 10",HDAC2 [5]; [7],"107,4969* and 95,99841*"
same,Ki,"HDAC2 [5]; resynthesized peptide in solution, Cheng-Prusoff, n = 2",98 ± 1 nM
same,EC50,HDAC8,3.02 nM
same,EC50,HDAC1 [6],9.12 nM
